Data on one compound can be found in patent US6534496B1, “Thermogenic composition and benzazepine thermogenics” (Takeda Chemical Industries, Inc., priority 1997, dated 2003).

Assay [1] can be described thus: Assay of thermogenic activity in mice (Test Example 4). As to conditions: 1 mg/kg orally for 6 days; 24 hours-average regional temperature after the final administration; N=6. The format is in vivo, male C57BL db/db mice. Here is the method:
The telethermometer (VltaView™, Mini-Mitter Co., Inc., USA) was inplanted subcutaneously border on the scapulae of male C57BL db/db mice (CLEA Japan Inc., N=6) anesthetized with ether. After 7 days acclimatization, 1 mg/kg of the compound which was obtained in Example 23, was orally administrated for 6 days. The 24 hours-average regional temperature after the final administration was measured. The control was administrated 0.5% methylcellulose solution.

A short description of assay [2]: Assay of reducing activity against weight gain of mice. Type of assay: in vivo, Male C57BL db/db mice. The procedure:
Male C57BL db/db mice (CLEA Japan Inc., 10 weeks old) was pretreated for 7 days, with solid feed (CLEA Japan Inc., CE-2). After acclimatization, 0.3 mg/kg or 1.0 mg/kg of the compound which, was obtained in Example 23, was oraly administrated for 6 weeks. Body weight was measured after the final administration. After the measurement, total blood was successively drawn from the orbital vain, and the visceral fat was collected and its weight was measured. Statistics analysis was carried out with Dunnett anlalysis.

[3] abbreviates: second line of Example 23, dose printed 0.3 mg/kg, orally for 6 weeks.

`CC(=O)N1CCC(CCC(=O)c2ccc3c(c2)CCN(Cc2ccccc2)CC3)CC1.Cl` [Example 23, 3-(1-Acetyl-4-piperidinyl)-1-[3-(phenylmethyl)-2,3,4,5-tetrahydro-1H-3-benzazepin-7-yl]-1-propanone Hydrochloride] registered a Regional temperature in assay [1] of 35.54 °C. For the same compound, the “Amount of visceral fat (average ± S.E.)” value was 5.47 ± 0.36 g in assay [2] (0.3 mg/kg orally for 6 weeks) and 5.13 ± 0.39 g in assay [2] (1.0 mg/kg orally for 6 weeks). Besides, the “Body weight, ending date of administration (average ± S.E.)” value in assay [2] (0.3 mg/kg orally for 6 weeks) amounted to 40.87 ± 1.57 g; in assay [2] (setting [3]) it was 39.75 ± 1.55 g. The results for the “Body weight, starting date of administration (average ± S.E.)” value in assay [2] (0.3 mg/kg orally for 6 weeks) and in assay [2] (setting [3]) were 40.21 ± 0.48 g and 40.40 ± 0.69 g, respectively.
